Results on eleven compounds are retold here after patent US20240262819A1, “NOVEL COMPOUNDS HAVING INHIBITORY ACTIVITY AGAINST GLUCOSYLCERAMIDE SYNTHASE OR PHARMACEUTICALLY ACCEPTABLE SALT THEREOF, PROCESSES FOR PREPARING THE SAME, AND PHARMACEUTICAL COMPOSITIONS COMPRISING THE SAME” (YUHAN CORPORATION, priority 2021, published 2024).

Assay [1] concerns GM1 production in Jurkat cells. Kind of assay: cells. In kind it is cell-based.
Assay [2] deals with glucosylceramide synthase (GCS) (Homo sapiens (Human), UniProt Q16739). The assay can be described thus: Evaluation of inhibitory activities against GCS (A549 cell lysate, NBD C6-ceramide, HPLC). It counts as biochemical. Put shortly: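 GCS activity in A549 cell lysate (50 mM HEPES, pH 7.3) with NBD C6-ceramide, reacted 90 min at 37 °C. Lipids were chloroform/methanol-extracted and separated by normal-phase HPLC with fluorescence detection (ex 470/em 530 nm). GlcCer fraction of peak area was normalized between DMSO and ibiglustat, and IC50 obtained by curve fitting.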

The mark [3] stands for this setting: % GCS activity, A549 cell lysate, 37° C. for 90 minutes, read-out: IC50.

Read-outs that look alike come from different tables or passages of the source.

Sequence of glucosylceramide synthase (GCS) (Q16739 whole entry): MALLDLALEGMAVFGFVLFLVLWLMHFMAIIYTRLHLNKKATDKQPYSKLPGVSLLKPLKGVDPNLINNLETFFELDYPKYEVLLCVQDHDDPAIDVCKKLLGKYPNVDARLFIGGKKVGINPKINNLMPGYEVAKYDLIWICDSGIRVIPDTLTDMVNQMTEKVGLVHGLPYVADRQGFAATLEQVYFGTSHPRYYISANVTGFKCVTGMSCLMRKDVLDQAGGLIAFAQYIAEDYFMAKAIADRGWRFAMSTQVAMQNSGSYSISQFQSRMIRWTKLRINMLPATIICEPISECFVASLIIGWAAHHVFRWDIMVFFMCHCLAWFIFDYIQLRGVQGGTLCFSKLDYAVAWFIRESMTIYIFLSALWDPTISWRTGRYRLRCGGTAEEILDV

With `CCOc1cc2c(cc1-c1ccc(OC)cc1F)CC(C)(C)[C@H]2NC(=O)O[C@@H]1CN2CCC1CC2` [Example 138, (S)-quinuclidin-3-yl((R)-6-ethoxy-5-(2-fluoro-4-methoxyphenyl)-2,2-dimethyl-2,3-dihydro-1H-inden-1-yl)carbamate], the IC50 came to 28 nM in assay [1] (Homo sapiens, Jurkat, 72 h) and 1.87 nM in assay [2].

In the case of `CCc1ccc(-c2ccc3c(c2)CCC(C)(C)[C@H]3NC(=O)O[C@@H]2CN3CCC2CC3)cc1` [Example 139, (S)-quinuclidin-3-yl((R)-6-(4-ethylphenyl)-2,2-dimethyl-1,2,3,4-tetrahydronaphthalen-1-yl)carbamate], the IC50 in assay [1] (Homo sapiens, Jurkat, 72 h) came to 3.01 nM; in assay [2], 0.26 nM.

Turning to `CCCc1ccc(-c2ccc3c(c2)CCC(C)(C)[C@H]3NC(=O)O[C@@H]2CN3CCC2CC3)cc1` [Example 140, (S)-quinuclidin-3-yl((R)-2,2-dimethyl-6-(4-propylphenyl)-1,2,3,4-tetrahydronaphthalen-1-yl)carbamate], the IC50 in assay [1] (Homo sapiens, Jurkat, 72 h) was 2.5 nM; in assay [2], 0.29 nM.

Take `CC(C)c1ccc(-c2ccc3c(c2)CCC(C)(C)[C@H]3NC(=O)O[C@@H]2CN3CCC2CC3)cc1` [Example 141, (S)-quinuclidin-3-yl((R)-6-(4-isopropylphenyl)-2,2-dimethyl-1,2,3,4-tetrahydronaphthalen-1-yl)carbamate]: the IC50 in assay [1] (Homo sapiens, Jurkat, 72 h) came to 2.77 nM; in assay [2], 0.43 nM.

Take `CCCCc1ccc(-c2ccc3c(c2)CCC(C)(C)[C@H]3NC(=O)O[C@@H]2CN3CCC2CC3)cc1` [Example 142, (S)-quinuclidin-3-yl((R)-6-(4-butylphenyl)-2,2-dimethyl-1,2,3,4-tetrahydronaphthalen-1-yl) carbamate]: the IC50 in assay [1] (read-out: IC50) amounted to 1.4 nM; in assay [2] (setting [3]), 0.23 nM.

Turning to `CCOc1ccc(-c2ccc3c(c2)CCC(C)(C)[C@H]3NC(=O)O[C@@H]2CN3CCC2CC3)cc1` [Example 143, (S)-quinuclidin-3-yl((R)-6-(4-ethoxyphenyl)-2,2-dimethyl-1,2,3,4-tetrahydronaphthalen-1-yl) carbamate], the IC50 in assay [1] (read-out: IC50) is 4.2 nM; in assay [2] (setting [3]), 0.33 nM.

For `CCCOc1ccc(-c2ccc3c(c2)CCC(C)(C)[C@H]3NC(=O)O[C@@H]2CN3CCC2CC3)cc1` [Example 144, (S)-quinuclidin-3-yl((R)-2,2-dimethyl-6-(4-propoxyphenyl)-1,2,3,4-tetrahydronaphthalen-1-yl) carbamate], the IC50 in assay [1] (read-out: IC50) is 2.3 nM; in assay [2] (setting [3]) it was 0.42 nM.

`CCCCOc1ccc(-c2ccc3c(c2)CCC(C)(C)[C@H]3NC(=O)O[C@@H]2CN3CCC2CC3)cc1` [Example 145, (S)-quinuclidin-3-yl((R)-6-(4-butoxyphenyl)-2,2-dimethyl-1,2,3,4-tetrahydronaphthalen-1-yl)carbamate]: the IC50 in assay [1] (Homo sapiens, Jurkat, 72 h) is 0.3 nM; in assay [2], 0.29 nM.

As to `CC(C)COc1ccc(-c2ccc3c(c2)CCC(C)(C)[C@H]3NC(=O)O[C@@H]2CN3CCC2CC3)cc1` [Example 146, (S)-quinuclidin-3-yl((R)-6-(4-isobutoxyphenyl)-2,2-dimethyl-1,2,3,4-tetrahydronaphthalen-1-yl)carbamate], the IC50 amounted to 0.68 nM in assay [1] (Homo sapiens, Jurkat, 72 h) and 0.17 nM in assay [2].

Consider `COc1c(C)cc(-c2ccc3c(c2)CCC(C)(C)[C@H]3NC(=O)O[C@@H]2CN3CCC2CC3)cc1C` [Example 147, (S)-quinuclidin-3-yl((R)-6-(4-methoxy-3,5-dimethylphenyl)-2,2-dimethyl-1,2,3,4-tetrahydronaphthalen-1-yl) carbamate], for which the IC50 worked out at 9.4 nM in assay [1] (read-out: IC50) and 1.18 nM in assay [2] (setting [3]).

Consider `Cc1cc(-c2ccc3c(c2)CCC(C)(C)[C@H]3NC(=O)O[C@@H]2CN3CCC2CC3)cc(C)c1OC(C)C` [Example 149, (S)-quinuclidin-3-yl((R)-6-(4-isopropoxy-3,5-dimethylphenyl)-2,2-dimethyl-1,2,3,4-tetrahydronaphthalen-1-yl) carbamate], for which the IC50 was 14.6 nM in assay [1] (read-out: IC50) and 1.77 nM in assay [2] (setting [3]).
